Like-named read-outs stand apart in the source and are kept apart here. Where no end group is shown, it is not given here.
What was measured:
Ramos cells [1] = assay type: cell-based, human
Text: (§1) Ramos (CRL-1596; American Type Culture Collection [ATCC]) is a human cell line of GC centroblast-derived BCL that was isolated from a Burkitt’s lymphoma patient, and Daudi (CCL-213; ATCC) is another human BCL cell line of Burkitt’s type. The control human cell lines of K562 (CCL-243; ATCC) and THP-1 (TIB-202; ATCC) wre originated from myelogenous and monocytic leukemia patients, respectively. NIH3T3 (CRL-1658; ATCC) is a mouse cell line of fibroblasts. […] Cells were counted on a hemocytometer (Neubauer; Marienfeld) after staining their aliquot with an equal volume of 0.4% trypan blue solution. All of the cell culture media and their supplements were purchased from Gibco (Thermo Fisher Scientific).
Stock solutions of various peptides, whose syntheses were custom ordered from GenScript via Koma Biotech in Korea, were first prepared by dissolving the lyophilized powder in PBS. Then, their aliquots were serially diluted with PBS to reach the final concentrations required for the experiments. […] To chase the effect of peptide transfection on the cellular proliferation, cells were counted daily on a hemocytometer by staining their aliquot with an equal volume of 0.4% trypan blue solution and finally harvested to analyze the effects of transfected peptide on various molecular events such as protein localization, transcription factor binding, gene expression, and rRNA production. […]

Daudi cells = assay type: cell-based, human; conditions: control peptides added directly to culture media without sodium pyruvate (Figure 6B)
Text: as §1

Ramos cells [2] = assay type: cell-based, human; conditions: control peptides added directly to culture media without sodium pyruvate (Figure 6A)
Text: as §1

[3] = tested on: Ramos, Daudi, K562 and THP-1 cells
Protocol: (§2) For a 2-mL culture of cells in each well of a 6-well plate, 7 μL peptide solution in a concentration of 10 μg/μL in PBS was added directly to the culture media, which were RPMI-1640 supplemented with fetal bovine serum (10%), L-glutamine (1×), nonessential amino acids (1×), penicillin/streptomycin (1×), and 2-mercaptoethanol (50 μM), but not sodium pyruvate. The intrinsic cell membrane permeability of peptide with its N-terminally conjugated FAM fluorophore was checked by observing the peptide-treated cells in a confocal fluorescence microscope (Zeiss) after mounting the washed cells on a microscope slide with a cover glass. It was important that the treated cells be washed well, for example, five times with warm PBS-T (0.01% Tween 20) to remove any nonspecifically adsorbed FAM fluorophore-conjugated peptides. Various custom-ordered peptides with or without the conjugated FAM fluorophore to be used for this direct addition to the cells in culture media as well as for their intravenous injection to the xenografted nude mice as described below were prepared as mentioned above.

[4] = tested on: Ramos, Daudi, K562 and THP-1 cells; experiment: Intrinsic cell membrane permeability of FAM-conjugated peptides added directly to culture media (confocal fluorescence microscopy); conditions: for intrinsic cell membrane permeability: FAM fluorophore-labeled peptides added directly to Ramos, Daudi, K562 and THP-1 cells in culture media, cells washed with PBS-T, confocal fluorescence (Figure 6); for cell membrane permeability: N-terminally FAM-conjugated peptide added directly to culture media, confocal fluorescence (Figure 5A)
Protocol: as §2

| Compound | proliferation of Crlz-1+ Daudi cells inhibited (Daudi cells) | proliferation of Crlz-1+ Ramos cells inhibited (Ramos cells [2]) | intrinsic cell membrane permeability [3] | intrinsic cell membrane permeability [4] | cell membrane permeability ([4]; absence of sodium pyruvate) | further results |
| --- | --- | --- | --- | --- | --- | --- |
| O=C([O-])CCN1C(=O)/C(=C/c2ccc(-c3ccc([N+](=O)[O-])cc3)o2)SC1=S.[K+] [KYA1797K] | – | – | – | – | – | saturation concentration for cell growth inhibition (Ramos cells [1]; titration in Xfect transfection/treatment of Ramos cells, in the absence of any cell death (Figures 2D, 2E)): 5.5 µg/mL |
| ADEAIT | not | not | no such intrinsic cell membrane permeability | – | – | – |
| AKRAIT [AKRAIT] | – | – | – | intrinsic cell membrane permeabilities | intrinsically membrane permeable | death of transfected cells (Ramos cells [1]): not observed |
| AVGAGT [AVGAGT] | – | – | – | intrinsic cell membrane permeabilities | permeable through the membrane regardless of sodium pyruvate | cell membrane permeability ([4]; presence of sodium pyruvate): permeable through the membrane regardless of sodium pyruvate |
| TIARKA | not | not | intrinsic cell membrane permeabilities | – | – | – |
